From patent US10906930B2, “Compositions and methods for activating “stimulator of interferon gene”-dependent signalling” (ADURO BIOTECH, INC., priority 2015, dated 2021)
Like-named read-outs stand apart in the source and are kept apart here.

What was measured:
[1] = biological target: T1, wild type hSTING (STING AA140-379) (Homo sapiens, UniProt Q86WV6, H232R); assay: DSF Tm shift with purified hSTING WT protein; format: binding; settings: for hSTING Tm Shift WT: 1 mg/mL purified STING AA140-379, ligand 1 mM
T1 construct: DNA encoding amino acids 140-379 (amino acid numbering corresponding to Swiss Prot Q86WV6); 6xHIS (N, cleaved yes); SUMO (N, cleaved yes); made in house; host or cells: E. coli Rosetta2 (DE3)
T1 sequence (Q86WV6 140-379 H232R): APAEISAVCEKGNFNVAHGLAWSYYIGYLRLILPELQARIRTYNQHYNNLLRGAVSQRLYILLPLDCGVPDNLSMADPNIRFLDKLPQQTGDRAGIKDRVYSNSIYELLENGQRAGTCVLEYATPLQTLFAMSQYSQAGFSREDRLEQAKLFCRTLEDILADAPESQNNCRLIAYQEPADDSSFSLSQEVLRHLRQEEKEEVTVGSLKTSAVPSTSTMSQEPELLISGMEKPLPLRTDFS
Description: (§1) Cells were grown in lysogeny broth at 37° C. until a […] absorbance of 0.6 was reached. […] Cell pellets were re-suspended on ice in a buffer containing 50 mM Tris hydrochloride (Tris-HCl) pH 7.5, 500 mM sodium chloride (NaCl), 20 mM imidazole, 10% glycerol, 1 mM tris(2-carboxyethyl)phosphine hydrochloride (TCEP) and protease inhibitor tablet (Pierce) (Buffer A). Cells were lysed using an S-450D sonifier (Emmerson industrial) on ice. […] The protein is heated in the presence of a dye that binds to and fluoresces in hydrophobic environments. The protein is thermally denatured by heating resulting in increased dye binding to the unfolded protein and fluorescence. The temperature midpoint (Tm) of a proteins denaturation is established by calculating the half maximal value of the denaturation curve. The temperature midpoint of the protein in the presence of a ligand is directly related to the affinity of the ligand for the protein and therefore its ability to stabilize the protein at higher temperatures.
(§2) Each of wild type hSTING, HAQ allele hSTING and REF allele hSTING were used with each of the reference compounds and compounds of the invention as listed in Table 4. […] Samples were placed in hard shell PCR plate (Bio-Rad). The fluorescence as a function of temperature was recorded in a CFX 96 real time PCR machine (Bio-Rad) reading on the HEX channel, excitation 450-490, emission 560-580 nm. The temperature gradient was from 15-80° C. ramping 0.5° C. per 15 seconds and recording every 0.5° C. After subtraction of the background signal from a sample lacking protein and ligand. The midpoint temperature (Tm) was calculated by fitting the curves of the fluorescence as a function of temperature to a Boltzmann sigmoidal function (Graph Pad Prism).

[2] = test system: human STING signaling in THP1 cells (HAQ allele); assay: THP1-Dual IRF-3 inducible luciferase reporter assay; format: cell-based; settings: Homo sapiens
Description: […] After 30 minutes, cells were washed and fresh RPMI media containing 10% FBS was added, and cells were incubated at 37° C. with 5% CO2. Cell culture supernatants from each sample were collected after overnight incubation, and 10 μL of the cell culture supernatants was added to 50 μL QUANTI-Luc reagent (Invivogen). Type I interferon activation was determined by measuring secreted luciferase levels on a SpectraMax M3 spectrophotometer (Molecular Devices).

[3] = biological target: T2, REF allele hSTING (STING AA140-379) (Homo sapiens, UniProt Q86WV6); assay: DSF Tm shift with purified hSTING REF allele protein; format: binding; settings: for hSTING Tm Shift REF: 1 mg/mL purified STING AA140-379, ligand 1 mM
T2 construct: DNA encoding amino acids 140-379 (amino acid numbering corresponding to Swiss Prot Q86WV6); 6xHIS (N, cleaved yes); SUMO (N, cleaved yes); made in house; host or cells: E. coli Rosetta2 (DE3)
T2 sequence (Q86WV6 140-379): as the sequence (Q86WV6 140-379 H232R) above, with R93H counted along it
Description: as §1, §2

[4] = biological target: T3, HAQ allele hSTING (STING AA140-379) (Homo sapiens, UniProt Q86WV6, G230A/H232R/R293Q); assay: DSF Tm shift with purified hSTING HAQ allele protein; format: binding; settings: for hSTING Tm Shift HAQ: 1 mg/mL purified STING AA140-379, ligand 1 mM
T3 construct: DNA encoding amino acids 140-379 (amino acid numbering corresponding to Swiss Prot Q86WV6); 6xHIS (N, cleaved yes); SUMO (N, cleaved yes); made in house; host or cells: E. coli Rosetta2 (DE3)
T3 sequence (Q86WV6 140-379 G230A/H232R/R293Q): as the sequence (Q86WV6 140-379 H232R) above, with G91A, R154Q counted along it
Description: as §1, §2

[5] = THP-1, THP1 cells (HAQ allele), without digitonin, read-out: EC50 No digitonin

Compound	hSTING Tm Shift WT [1]	Tm shift compared with reference compound, in words ([1]; hSTING WT)	EC50 [2, 5]	hSTING Tm Shift REF [3]	Tm shift compared with reference compound, in words ([3]; hSTING REF allele)	hSTING Tm Shift HAQ [4]	Tm shift compared with reference compound, in words ([4]; hSTING HAQ allele)	EC50 ([2]; THP-1, read-out: EC50 No digitonin)
Nc1ncnc2c1ncn2[C@@H]1O[C@@H]2CO[P@@](=O)(S)O[C@@H]3[C@H](F)[C@@H](CO[P@](=O)(S)O[C@H]2[C@H]1F)O[C@H]3n1cnc2c(N)ncnc21 [Compound 5a, dithio-[RP, SP]-cyclic-[3′F-A(2′,5′)p-2′F-A(3′,5′)p]]	11.5 °C	higher Tm shift than the di-OH reference 2′3′-SR-(A)(A)	34.8 µM	7.9 °C	higher Tm shift than the di-OH reference 2′3′-SR-(A)(A)	19.9 °C	higher Tm shift than the di-OH reference 2′3′-SR-(A)(A)	–
Nc1ncnc2c1ncn2[C@@H]1O[C@@H]2CO[P@@](=O)(S)O[C@@H]3[C@@H](F)[C@@H](CO[P@](=O)(S)O[C@H]2[C@H]1F)O[C@H]3n1cnc2c(N)ncnc21 [Compound 10a, dithio-[RP, Sp]-cyclic-[3′βF-A(2′,5′)p-2′F-A(3′,5′)p]]	7.0 °C	–	28.5 µM	3.4 °C	–	12.7 °C	–	–
Nc1ncnc2c1ncn2[C@@H]1O[C@@H]2CO[P@@](=O)(S)O[C@@H]3[C@H](F)[C@@H](CO[P@](=O)(S)O[C@H]2[C@H]1O)O[C@H]3n1cnc2c(N)ncnc21 [Compound 20a, dithio-[RP, SP]-cyclic-[3′F-A(2′,5′)p-A(3′,5′)p]]	6.6 °C	–	> 150 µM	4.0 °C	–	11.8 °C	–	–
Nc1nc2c(ncn2[C@@H]2O[C@@H]3CO[P@](=O)(S)O[C@@H]4[C@H](F)[C@@H](CO[P@@](=O)(S)O[C@H]3[C@H]2F)O[C@H]4n2cnc3c(N)ncnc32)c(=O)[nH]1 [Compound 32a, dithio-[RP, SP]-cyclic-[2′F-G(3′,5′)p-3′F-A(2′,5′)p]]	10.6 °C	–	24.9 µM	9.3 °C	–	14.3 °C	–	–
Nc1nc2c(ncn2[C@@H]2O[C@@H]3CO[P@](=O)(S)O[C@@H]4[C@H](F)[C@@H](CO[P@](=O)(S)O[C@H]3[C@H]2F)O[C@H]4n2cnc3c(N)ncnc32)c(=O)[nH]1 [Compound 32b, dithio-[SP, SP]-cyclic-[2′F-G(3′,5′)p-3′F-A(2′,5′)p]]	6.2 °C	–	> 150 µM	5.5 °C	–	9.3 °C	–	–
Nc1nc2c(ncn2[C@@H]2O[C@@H]3CO[P@](=O)(S)O[C@@H]4[C@H](O)[C@@H](CO[P@@](=O)(S)O[C@H]3[C@H]2F)O[C@H]4n2cnc3c(N)ncnc32)c(=O)[nH]1 [Compound 35a, dithio-[RP, SP]-cyclic-[2′F-G(3′,5′)p-A(2′,5′)p]]	10.8 °C	–	–	9.9 °C	–	14.2 °C	–	54.9 µM
Nc1ncnc2c1ncn2[C@@H]1O[C@@H]2CO[P@@](=O)(S)O[C@@H]3C[C@@H](CO[P@](=O)(S)O[C@H]2[C@H]1F)O[C@H]3n1cnc2c(N)ncnc21 [Compound 45a, dithio-[RP, SP]-cyclic-[3′H-A(2′,5′)p-2′F-A(3′,5′)p]]	7.5 °C	–	113 µM	4.3 °C	–	13.1 °C	–	–
Nc1ncnc2c1ncn2[C@@H]1O[C@@H]2COP(=O)(S)O[C@@H]3[C@@H](F)[C@@H](COP(=O)(S)O[C@H]2[C@H]1O)O[C@H]3n1cnc2c(N)ncnc21 (stereo partly shown) [Compound 53, dithio-cyclic-[3′βF-A(2′,5′)p-A(3′,5′)p]]	1.1 °C	–	–	−3.4 °C	–	5.5 °C	–	–
